In data set [1] the test system is Human immunodeficiency virus 1. The data set can be described thus: Antiviral activity against HIV-1 infected in human NCK45 cells assessed as inhibition of infection after 48 hrs by dual-reporter gene assay. In kind it is functional, organism-based. The settings on record: Human immunodeficiency virus 1, NCK45, 48 h.
Data set [2] can be described thus: Cytotoxicity against human NCK45 cells at 1 uM. In kind it is cell-based. To be noted: nck45, 1 µM.
Data set [3] in a line: Cytotoxicity against human NCK45 cells at 10 uM. In kind it is cell-based. To be noted: nck45, 10 µM.

For `CCC(=O)Nc1cc(CNc2c(C#N)c(C)nn2-c2ccc3ncccc3c2)cc(Cl)c1O`, the EC50 in data set [1] is > 10000 nM.
With `CCC(=O)Nc1cc(CNc2c(C#N)c(C)nn2-c2cccc(-c3ccccc3OC)c2)cc(Cl)c1O`, the EC50 in data set [1] is > 100 nM. For the same molecule, in data set [2], the Activity result was “Toxic”.
The matching figures for `CCC(=O)Nc1cc(CNc2c(C#N)c(C)nn2-c2cccc(-c3ccccc3C)c2)cc(Cl)c1O`: > 100 nM and “Toxic”.
With `CCC(=O)Nc1cc(CNc2c(C#N)c(C)nn2-c2cccc(-c3ccccc3Cl)c2)cc(Cl)c1O`, in data set [1], the EC50 was found to be 250 nM. The Activity result in data set [3] is reported as “Toxic”.
With `CCC(=O)Nc1cc(CNc2c(C#N)c(C)nn2-c2cccc(-c3cccc(OC)c3)c2)cc(Cl)c1O`, the EC50 in data set [1] was > 100 nM. Also, the Activity entry in data set [2] is recorded as “Toxic”.
For `CCC(=O)Nc1cc(CNc2c(C#N)c(C)nn2-c2cccc(-c3cccc(C)c3)c2)cc(Cl)c1O`, in that order: 58 nM and “Toxic”.
For `CCC(=O)Nc1cc(CNc2c(C#N)c(C)nn2-c2cccc(-c3cccc(Cl)c3)c2)cc(Cl)c1O`, in that order: > 100 nM and “Toxic”.
The matching figures for `CCC(=O)Nc1cc(CNc2c(C#N)c(C)nn2-c2cccc(-c3ccc(OC)cc3)c2)cc(Cl)c1O`: > 100 nM and “Toxic”.
As to `CCC(=O)Nc1cc(CNc2c(C#N)c(C)nn2-c2cccc(-c3ccc(C)cc3)c2)cc(Cl)c1O`, in data set [1], the concentration for a half-maximal effect (EC50) turned out to be 97 nM. Moreover, the Activity entry in data set [2] is recorded as “Toxic”.
The matching figures for `CCC(=O)Nc1cc(CNc2c(C#N)c(C)nn2-c2cccc(-c3ccc(Cl)cc3)c2)cc(Cl)c1O`: > 100 nM and “Toxic”.
For `CCC(=O)Nc1cc(CNc2c(C#N)c(C)nn2-c2cccc(-c3ccc(Cl)c(Cl)c3)c2)cc(Cl)c1O`, in that order: 47 nM and “Toxic”.
With `CCC(=O)Nc1cc(CNc2c(C#N)c(C)nn2-c2cccc(-c3ccc4ccccc4c3)c2)cc(Cl)c1O`, in data set [1], the half-maximal effective concentration (EC50) is > 100 nM. Also, in data set [2], the Activity result was “Toxic”.
For the molecule `CCC(=O)Nc1cc(CNc2c(C#N)c(C)nn2-c2cccc(-c3ccncc3)c2)cc(Cl)c1O`, in data set [1], the EC50 is > 1000 nM. Also, the Activity result in data set [3] is on record as “Toxic”.
With `CCC(=O)Nc1cc(CNc2c(C#N)c(C)nn2-c2cccc(-c3cnc4ccccc4c3)c2)cc(Cl)c1O`, the EC50 in data set [1] is > 100 nM. The Activity entry in data set [2] is reported as “Toxic”.
The matching figures for `CCC(=O)Nc1cc(CNc2c(C#N)c(C)nn2-c2cccc(C(F)(F)F)c2)cc(Cl)c1O`: > 100 nM and “Toxic”.
Turning to `CCC(=O)Nc1cc(CNc2c(C#N)c(C)nn2-c2cccc([N+](=O)[O-])c2)cc(Cl)c1O`, the EC50 in data set [1] was > 1000 nM. Moreover, the Activity entry in data set [3] is recorded as “Toxic”.
In the case of `CCC(=O)Nc1cc(CNc2c(C#N)c(C)nn2-c2cccc(-c3ccccc3)c2)cc(Cl)c1O`, the EC50 in data set [1] was 130 nM. The Activity entry in data set [2] is “Toxic”.
Turning to `CCC(=O)Nc1cc(CNc2c(C#N)c(C)nn2-c2cccc(NC(C)=O)c2)cc(Cl)c1O`, in data set [1], the EC50 was > 10000 nM.
Turning to `CCC(=O)Nc1cc(CNc2c(C#N)c(C)nn2-c2ccc(C)cc2)cc(Cl)c1O`, the EC50 in data set [1] is > 1000 nM. Further, the Activity entry in data set [3] was “Toxic”.
The matching figures for `CCC(=O)Nc1cc(CNc2c(C#N)c(C)nn2-c2ccccc2C)cc(Cl)c1O`: > 1000 nM and “Toxic”.
For `CCC(=O)Nc1cc(CNc2c(C#N)c(C)nn2-c2cc(Cl)cc(Cl)c2)cc(Cl)c1O`, in that order: > 1000 nM and “Toxic”.
The matching figures for `CCC(=O)Nc1cc(CNc2c(C#N)c(C)nn2-c2ccc3ccccc3c2)cc(Cl)c1O`: > 1000 nM and “Toxic”.
For the molecule `CCC(=O)Nc1cc(CNc2c(C#N)c(C)nn2-c2cccc3ccccc23)cc(Cl)c1O`, the EC50 in data set [1] was > 1000 nM. Also, the Activity result in data set [3] is reported as “Toxic”.
With `CCC(=O)Nc1cc(CNc2c(C#N)c(C)nn2-c2ccccn2)cc(Cl)c1O`, in data set [1], the EC50 was > 100 nM. For the same molecule, in data set [2], the Activity result was “Toxic”.
Take `CCC(=O)Nc1cc(CNc2c(C#N)c(C)nn2-c2cccnc2)cc(Cl)c1O`: the EC50 in data set [1] was > 10000 nM.
In the case of `CCC(=O)Nc1cc(CNc2c(C#N)c(C)nn2-c2nccc3ccccc23)cc(Cl)c1O`, in data set [1], the EC50 is > 1000 nM. Besides, the Activity result in data set [3] is given as “Toxic”.
In the case of `CCC(=O)Nc1cc(CNc2c(C#N)c(C)nn2-c2ccccc2)cc(C)c1O`, the EC50 in data set [1] was > 10000 nM.
For `CC(=O)Nc1cc(CNc2c(C#N)c(C)nn2-c2ccccc2)cc(Cl)c1O`, the EC50 in data set [1] is > 1000 nM. Moreover, in data set [3], the Activity result is on record as “Toxic”.
Consider `CCCC(=O)Nc1cc(CNc2c(C#N)c(C)nn2-c2ccccc2)cc(Cl)c1O`, for which, in data set [1], the EC50 came out at 3300 nM.
On the same count and under the same terms, in the case of `CCCCCC(=O)Nc1cc(CNc2c(C#N)c(C)nn2-c2ccccc2)cc(Cl)c1O` it was > 10000 nM.
For `CCNC(=O)c1cc(CNc2c(C#N)c(C)nn2-c2ccccc2)cc(Cl)c1O`, in data set [1], the half-maximal effective concentration (EC50) is > 1000 nM. Besides, in data set [3], the Activity entry is reported as “Toxic”.
The matching figures for `CCC(=O)Nc1cc(CNc2c(C#N)cnn2-c2ccccc2)cc(Cl)c1O`: > 1000 nM and “Toxic”.
As for `CCC(=O)Nc1cc(CNc2cc(C)nn2-c2ccccc2)cc(Cl)c1O`, in data set [1], the 50% effective concentration (EC50) was > 10000 nM.
Still for that read-out and setting: with `CCC(=O)Nc1cc(CNc2c(C#N)c(C)nn2C)cc(Cl)c1O` the figure was > 10000 nM.
In the case of `CCC(=O)Nc1cc(CNc2c(C#N)c(C)nn2C2CCCCC2)cc(Cl)c1O`, in data set [1], the EC50 is > 1000 nM. Also, the Activity entry in data set [3] was “Toxic”.
On to `CCC(=O)Nc1cc(CNc2c(C#N)c(CC)nn2-c2ccccc2)cc(Cl)c1O`, for which, in data set [1], the EC50 was > 10000 nM.
The same measure, in the same setting: in the case of `CCC(=O)Nc1cc(CNc2c(C#N)c(-c3ccccc3)nn2-c2ccccc2)cc(Cl)c1O` it was > 10000 nM.
`CCC(=O)Nc1cc(CNc2c(C(=O)OC)c(C)nn2-c2ccccc2)cc(Cl)c1O`: in data set [1], the EC50 is > 1000 nM. The Activity entry in data set [3] is on record as “Toxic”.
Consider `CCC(=O)Nc1cc(CNc2c(C#N)c(C)nn2-c2cccc(OC)c2)cc(Cl)c1O`, for which the EC50 in data set [1] is > 10000 nM.
With `CCC(=O)Nc1cc(CNc2c(C#N)c(C)nn2-c2cccc(C)c2)cc(Cl)c1O`, the EC50 in data set [1] came to 370 nM. Moreover, in data set [3], the Activity entry is “Toxic”.
As for `CCC(=O)Nc1cc(CNc2c(C#N)c(C)nn2-c2cccc(Br)c2)cc(Cl)c1O`, the EC50 in data set [1] is > 100 nM. For the same molecule, the Activity result in data set [2] is reported as “Toxic”.
For `CCC(=O)Nc1cc(CNc2c(C#N)c(C)nn2-c2cccc(F)c2)cc(Cl)c1O`, in data set [1], the EC50 was found to be 330 nM. In addition, the Activity entry in data set [3] is reported as “Toxic”.
With `CCC(=O)Nc1cc(/N=N/c2c(C#N)c(C)nn2-c2ccccc2)cc(Cl)c1O`, the EC50 in data set [1] amounted to 320 nM.
Still for that read-out and setting: with `CCC(=O)Nc1cc(/C=C/c2c(C#N)c(C)nn2-c2ccccc2)cc(Cl)c1O` the figure was 440 nM.
Still for that read-out and setting: with `CCC(=O)Nc1cc(CNc2c(C#N)c(C)nn2-c2ccccc2)cc(Cl)c1O` the figure was 360 nM.
Still for that read-out and setting: with `CCC(=O)Nc1cc(Cl)cc(CNc2c(C#N)c(C)nn2-c2ccccc2)c1` the figure was > 10000 nM; with `CCC(=O)Nc1cc(CNc2c(C#N)c(C)nn2-c2ccccc2)cc(Cl)c1OC`, > 10000 nM.
Regarding `CCC(=O)Nc1cc(CNc2c(C#N)c(C)nn2-c2ccccc2)ccc1O`, in data set [1], the EC50 is > 10000 nM.

One may read the EC50 as the midpoint of the concentration-response curve.

These data come from ChEMBL document CHEMBL2407031, “Structure-activity relationship study of phenylpyrazole derivatives as a novel class of anti-HIV agents” (Bioorg Med Chem Lett, 2013).
